Tests used:
Assay type in all cases: cell-based
[1] = test system: Hormoconis resinae ATCC#20495; test: Microbial testing in diesel fuel, plate count
[2] = test system: Yarrowia tropicalis ATCC#48138; test: Microbial testing in diesel fuel, plate count
[3] = test system: Pseudomonas aeruginosa ATCC#33988; test: Microbial testing in diesel fuel, plate count
[4] = test system: Pseudomonas aeruginosa ATCC#33988; test: Microbial testing in biodiesel fuel, plate count; details: no biocide
[5] = test system: Hormoconis resinae ATCC#20495; test: Microbial testing in biodiesel fuel, plate count; details: no biocide
[6] = amino alcohol 1500 ppm + FS 135 ppm, Day 0
[7] = amino alcohol 1500 ppm + FS 135 ppm, Wk 1
[8] = amino alcohol 1500 ppm + FS 135 ppm, Wk 2
[9] = amino alcohol 1500 ppm + FS 135 ppm, Wk 3
[10] = amino alcohol 1500 ppm + FS 135 ppm, Wk 4
[11] = amino alcohol 1500 ppm + FS 1000 ppm, Day 0
[12] = amino alcohol 1500 ppm + FS 1000 ppm, Wk 1
[13] = amino alcohol 1500 ppm + FS 1000 ppm, Wk 2
[14] = amino alcohol 1500 ppm + FS 1000 ppm, Wk 3
[15] = amino alcohol 1500 ppm + FS 1000 ppm, Wk 4
[16] = amino alcohol 1500 ppm, no biocide, Day 0
[17] = amino alcohol 1500 ppm, no biocide, Wk 1
[18] = amino alcohol 1500 ppm, no biocide, Wk 2
[19] = amino alcohol 1500 ppm, no biocide, Wk 3
[20] = amino alcohol 1500 ppm, no biocide, Wk 4
[21] = amino alcohol 3000 ppm + FS 135 ppm, Day 0
[22] = amino alcohol 3000 ppm + FS 135 ppm, Wk 1
[23] = amino alcohol 3000 ppm + FS 135 ppm, Wk 2
[24] = amino alcohol 3000 ppm + FS 135 ppm, Wk 3
[25] = amino alcohol 3000 ppm + FS 135 ppm, Wk 4
[26] = amino alcohol 3000 ppm + FS 1000 ppm, Day 0
[27] = amino alcohol 3000 ppm + FS 1000 ppm, Wk 1
[28] = amino alcohol 3000 ppm + FS 1000 ppm, Wk 2
[29] = amino alcohol 3000 ppm + FS 1000 ppm, Wk 3
[30] = amino alcohol 3000 ppm + FS 1000 ppm, Wk 4
[31] = amino alcohol 3000 ppm, no biocide, Day 0
[32] = amino alcohol 3000 ppm, no biocide, Wk 1
[33] = amino alcohol 3000 ppm, no biocide, Wk 2
[34] = amino alcohol 3000 ppm, no biocide, Wk 3
[35] = amino alcohol 3000 ppm, no biocide, Wk 4

CC(C)(N)CO [AMP, 2-amino-2-methyl-1-propanol]
H. resinae organism count [1, 6]: 5.3E5 | H. resinae organism count [1, 7]: 6.7E4 | H. resinae organism count [1, 8]: 1.3E4 | H. resinae organism count [1, 9]: 5.8E3 | H. resinae organism count [1, 10]: 4.7E3 | H. resinae organism count [1, 11]: 5.3E5 | H. resinae organism count [1, 12]: 9.2E2 | H. resinae organism count [1, 13]: <10 | H. resinae organism count [1, 14]: <10 | H. resinae organism count [1, 15]: <10 | H. resinae organism count [1, 16]: 5.3E5 | H. resinae organism count [1, 17]: 2.0E5 | H. resinae organism count [1, 18]: 5.8E5 | H. resinae organism count [1, 19]: 8.1E5 | H. resinae organism count [1, 20]: 7.2E5 | H. resinae organism count [1, 21]: 5.3E5 | H. resinae organism count [1, 22]: 5.7E4 | H. resinae organism count [1, 23]: 8.6E3 | H. resinae organism count [1, 24]: 7.6E3 | H. resinae organism count [1, 25]: 5.8E3 | H. resinae organism count [1, 26]: 5.3E5 | H. resinae organism count [1, 27]: 7.0E3 | H. resinae organism count [1, 28]: <10 | H. resinae organism count [1, 29]: <10 | H. resinae organism count [1, 30]: <10 | H. resinae organism count [1, 31]: 5.3E5 | H. resinae organism count [1, 32]: 3.6E5 | H. resinae organism count [1, 33]: 7.3E5 | H. resinae organism count [1, 34]: 1.1E6 | H. resinae organism count [1, 35]: 2.3E6 | Y. tropicalis organism count [2, 6]: 2.8E5 | Y. tropicalis organism count [2, 7]: 8.2E4 | Y. tropicalis organism count [2, 8]: 5.6E4 | Y. tropicalis organism count [2, 9]: 9.0E3 | Y. tropicalis organism count [2, 10]: 5.9E3 | Y. tropicalis organism count [2, 11]: 2.8E5 | Y. tropicalis organism count [2, 12]: 5.2E2 | Y. tropicalis organism count [2, 13]: <10 | Y. tropicalis organism count [2, 14]: <10 | Y. tropicalis organism count [2, 15]: <10 | Y. tropicalis organism count [2, 16]: 2.8E5 | Y. tropicalis organism count [2, 17]: 3.4E5 | Y. tropicalis organism count [2, 18]: 6.2E5 | Y. tropicalis organism count [2, 19]: 8.0E6 | Y. tropicalis organism count [2, 20]: 4.3E6 | Y. tropicalis organism count [2, 21]: 2.8E5 | Y. tropicalis organism count [2, 22]: 5.8E4 | Y. tropicalis organism count [2, 23]: 9.4E3 | Y. tropicalis organism count [2, 24]: 4.8E3 | Y. tropicalis organism count [2, 25]: 5.0E3 | Y. tropicalis organism count [2, 26]: 2.8E5 | Y. tropicalis organism count [2, 27]: 9.4E2 | Y. tropicalis organism count [2, 28]: <10 | Y. tropicalis organism count [2, 29]: <10 | Y. tropicalis organism count [2, 30]: <10 | Y. tropicalis organism count [2, 31]: 2.8E5 | Y. tropicalis organism count [2, 32]: 1.6E5 | Y. tropicalis organism count [2, 33]: 5.7E5 | Y. tropicalis organism count [2, 34]: 6.8E5 | Y. tropicalis organism count [2, 35]: 2.0E6 | Ps. aeruginosa organism count [3, 6]: 3.7E6 | Ps. aeruginosa organism count [3, 7]: 4.3E5 | Ps. aeruginosa organism count [3, 8]: 9.0E4 | Ps. aeruginosa organism count [3, 9]: 1.4E4 | Ps. aeruginosa organism count [3, 10]: 8.2E3 | Ps. aeruginosa organism count [3, 11]: 3.7E6 | Ps. aeruginosa organism count [3, 12]: 1.4E2 | Ps. aeruginosa organism count [3, 13]: <10 | Ps. aeruginosa organism count [3, 14]: <10 | Ps. aeruginosa organism count [3, 15]: <10 | Ps. aeruginosa organism count [3, 16]: 3.7E6 | Ps. aeruginosa organism count [3, 17]: 2.1E6 | Ps. aeruginosa organism count [3, 18]: 5.0E6 | Ps. aeruginosa organism count [3, 19]: 1.0E6 | Ps. aeruginosa organism count [3, 20]: 6.8E6 | Ps. aeruginosa organism count [3, 21]: 3.7E6 | Ps. aeruginosa organism count [3, 22]: 7.0E5 | Ps. aeruginosa organism count [3, 23]: 6.8E4 | Ps. aeruginosa organism count [3, 24]: 1.6E4 | Ps. aeruginosa organism count [3, 25]: 1.1E4 | Ps. aeruginosa organism count [3, 26]: 3.7E6 | Ps. aeruginosa organism count [3, 27]: <10 | Ps. aeruginosa organism count [3, 28]: <10 | Ps. aeruginosa organism count [3, 29]: <10 | Ps. aeruginosa organism count [3, 30]: <10 | Ps. aeruginosa organism count [3, 31]: 3.7E6 | Ps. aeruginosa organism count [3, 32]: 8.6E5 | Ps. aeruginosa organism count [3, 33]: 4.0E6 | Ps. aeruginosa organism count [3, 34]: 7.8E6 | Ps. aeruginosa organism count [3, 35]: 7.2E6

CCCCCCCC/C=C\CCCCCCCC(=O)O.OCCN(CCO)CCO [TEA/Oleic]
Bacteria (Ps. aeruginosa) count ([4]; additive 500 ppm, Week 1): 7.30E+04 Bact/ml | Bacteria (Ps. aeruginosa) count ([4]; additive 500 ppm, Week 2): 5.00E+05 Bact/ml | Bacteria (Ps. aeruginosa) count ([4]; additive 500 ppm, Week 3): 1.20E+06 Bact/ml | Bacteria (Ps. aeruginosa) count ([4]; additive 500 ppm, Week 4): 1.10E+06 Bact/ml | Bacteria (Ps. aeruginosa) count ([4]; additive 1500 ppm, Week 1): 2.00E+03 Bact/ml | Bacteria (Ps. aeruginosa) count ([4]; additive 1500 ppm, Week 2): 9.00E+04 Bact/ml | Bacteria (Ps. aeruginosa) count ([4]; additive 1500 ppm, Week 3): 2.20E+05 Bact/ml | Bacteria (Ps. aeruginosa) count ([4]; additive 1500 ppm, Week 4): 8.30E+04 Bact/ml | Mold (H. resinae) count ([5]; additive 500 ppm, Week 1): 8.20E+04 Mold/ml | Mold (H. resinae) count ([5]; additive 500 ppm, Week 2): 3.70E+05 Mold/ml | Mold (H. resinae) count ([5]; additive 500 ppm, Week 3): 4.30E+05 Mold/ml | Mold (H. resinae) count ([5]; additive 500 ppm, Week 4): 6.20E+05 Mold/ml | Mold (H. resinae) count ([5]; additive 1500 ppm, Week 1): 3.70E+02 Mold/ml | Mold (H. resinae) count ([5]; additive 1500 ppm, Week 2): 1.30E+04 Mold/ml | Mold (H. resinae) count ([5]; additive 1500 ppm, Week 3): 2.00E+04 Mold/ml | Mold (H. resinae) count ([5]; additive 1500 ppm, Week 4): 4.70E+03 Mold/ml

Source: patent US8546386B2, “Corrosion and microbial control in hydrocarbonaceous compositions” (Dow Global Technologies LLC, priority 2008, dated 2013)
